The assay concerns the target GTPase HRas (Homo sapiens, UniProt P01112). In words: Inhibition of human recombinant p21RAS by GDPX assay.

From ChEMBL document CHEMBL1148096, “Ophirapstanol trisulfate, a new biologically active steroid sulfate from the deep water marine sponge Topsentia ophiraphidites” (J Nat Prod, 1994) come the findings set out here.

Structures are written as SMILES.

Chain of GTPase HRas (P01112 whole entry): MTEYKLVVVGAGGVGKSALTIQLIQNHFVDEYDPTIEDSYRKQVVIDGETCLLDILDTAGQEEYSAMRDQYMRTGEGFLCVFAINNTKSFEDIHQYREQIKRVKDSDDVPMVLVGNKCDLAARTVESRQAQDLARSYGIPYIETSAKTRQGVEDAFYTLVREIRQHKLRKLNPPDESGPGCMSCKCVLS

Regarding `CC(C)C(C)(C)C(C)CC[C@@H](C)[C@H]1CC[C@H]2[C@@H]3C[C@H](OS(=O)(=O)O)C4C[C@H](OS(=O)(=O)O)[C@@H](OS(=O)(=O)O)C[C@]4(C)[C@H]3CC[C@]12C` (stereo partly specified) [OPHIRAPSTANOL TRISULFATE], the half-maximal inhibitory concentration (IC50) was 2.55 µM.

A word on the IC50: it is the concentration that inhibits the measured activity by half.
